The values that follow come from patent publication US9682938B2, “Pyrazolone derivatives as nitroxyl donors” (Cardioxyl Pharmaceuticals, Inc., priority 2014, dated 2017).

Common to all, as to assay type: in vitro ADME
The nature of series [1]: In vitro plasma stability, dog plasma. The note with it: male, pH 7.4, 5 μM, 37° C., sampling 0-360 minutes, read-out: T1/2 Dog. The essentials: (§1)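 Pooled plasma at pH 7.4 with sodium heparin or citrate anticoagulant; compound at 5 μM, 37° C with shaking, triplicate samples at 0–360 min. Quenched in acetonitrile/1% formic acid with internal standard; LC-MS/MS peak-area ratios without standard curve; T1/2 from percent remaining.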

The nature of series [2]: In vitro plasma stability, rat plasma. The conditions noted are these: male, pH 7.4, 5 μM, 37° C., sampling 0-360 minutes, read-out: T1/2 Rat. The method, boiled down: as §1
Series [3] is described as follows: In vitro plasma stability, human plasma. The conditions noted are these: male, pH 7.4, 5 μM, 37° C., sampling 0-360 minutes, read-out: T1/2 Human. The method, boiled down: as §1

Structures are written as SMILES.

Regarding `CN1N=C(c2ccccc2)C(NO)(c2ccccc2)C1=O` (stereo not drawn) [Compound 109, 4-(Hydroxyamino)-1-methyl-3,4-diphenyl-4,5-dihydro-1H-pyrazol-5-one], the half-life at 5 μM in series [1] was 11 min; in series [2], 8 min; in series [3], 10 min.

With `CCOC1=NN(c2ccccc2)C(=O)C1(NO)/C(C)=N/OC` (stereo not drawn) [Compound 110, 3-Ethoxy-4-(hydroxyamino)-4-[1-(methoxyimino)ethyl]-1-phenyl-4,5-dihydro-1H-pyrazol-5-one], the values for the half-life at 5 μM in series [1], in series [2] and in series [3] were 12 min, 62 min and 11 min, respectively.

As for `CCOC1=NN(c2ccc(Br)cc2)C(=O)C1(NO)/C(C)=N/OC` (stereo not drawn) [Compound 111, 1-(4-Bromophenyl)-3-ethoxy-4-(hydroxyamino)-4-[1-(methoxyimino)ethyl]-4,5-dihydro-1H-pyrazol-5-one], the results for the half-life at 5 μM in series [1], in series [2] and in series [3] were 24 min, 23 min and 29 min, respectively.

Regarding `CN1N=C(c2ccc(S(=O)(=O)N3CCC(F)(F)CC3)cc2)C(C)(NO)C1=O` (stereo not drawn) [Compound 114, 3-{4-[(4,4-Difluoropiperidin-1-yl)sulfonyl]phenyl}-4-(hydroxyamino)-1,4-dimethyl-4,5-dihydro-1H-pyrazol-5-one], the half-life at 5 μM in series [1] was determined as 42 min; in series [2], 49 min; in series [3], 25 min.

`C/C(=N\OCc1ccccc1)C1(NO)C(=O)N(C)N=C1C(C)(C)C` (stereo not drawn) [Compound 115, 4-[1-[(Benzyloxy)imino]ethyl]-3-tert-butyl-4-(hydroxyamino)-1-methyl-4,5-dihydro-1H-pyrazol-5-one]: the half-life at 5 μM stood at 27 min in series [1], 32 min in series [2] and 14 min in series [3].

With `CO/N=C(\C)C1(NO)C(=O)N(c2ccccc2)N=C1OC` (stereo not drawn) [Compound 116, 4-(Hydroxyamino)-3-methoxy-4-[1-(methoxyimino)ethyl]-1-phenyl-4,5-dihydro-1H-pyrazol-5-one], the results for the half-life at 5 μM in series [1], in series [2] and in series [3] were 18 min, 48 min and 9 min, respectively.

For `C/C(=N\OC(C)(C)C)C1(NO)C(=O)N(C)N=C1C(C)(C)C` (stereo not drawn) [Compound 117, 4-[1-[(tert-Butoxy)imino]ethyl]-3-tert-butyl-4-(hydroxyamino)-1-methyl-4,5-dihydro-1H-pyrazol-5-one], the half-life at 5 μM in series [1] was determined as 34 min; in series [2], 36 min; in series [3] it was 16 min.

As for `C/C(=N\Oc1ccc(Br)cc1)C1(NO)C(=O)N(C)N=C1C(C)(C)C` (stereo not drawn) [Compound 118, 4-[1-[(4-Bromophenoxy)imino]ethyl]-3-tert-butyl-4-(hydroxyamino)-1-methyl-4,5-dihydro-1H-pyrazol-5-one], the half-life at 5 μM amounted to 24 min in series [1], 22 min in series [2] and 5 min in series [3].

Consider `C/C(=N\Oc1ccccc1)C1(NO)C(=O)N(C)N=C1C(C)(C)C` (stereo not drawn) [Compound 119, 3-tert-Butyl-4-(hydroxyamino)-1-methyl-4-[1-(phenoxyimino)ethyl]-4,5-dihydro-1H-pyrazol-5-one], for which the half-life at 5 μM in series [1] came to 118 min; in series [2], 91 min; in series [3], 12 min.

As to `CC(C)S(=N)(=O)c1ccc(C2=NN(C)C(=O)C2(C)NO)cc1` (stereo not drawn) [Compound 120, 4-(Hydroxyamino)-3-{4-[imino(oxo)propan-2-yl-λ^6-sulfanyl]phenyl}-1,4-dimethyl-4,5-dihydro-1H-pyrazol-5-one], the half-life at 5 μM in series [1] came out at 31 min; in series [2] it was 56 min; in series [3], 32 min.

For `CO/N=C(\C)C1(NO)C(=O)N(C)N=C1c1ccc(S(=O)(=O)N(C)C)cc1` (stereo not drawn) [Compound 121, 4-[4-(Hydroxyamino)-4-[1-(methoxyimino)ethyl]-1-methyl-5-oxo-4,5-dihydro-1H-pyrazol-3-yl]-N,N-dimethylbenzene-1-sulfonamide], the results for the half-life at 5 μM in series [1], in series [2] and in series [3] were 4 min, 8 min and 2 min, respectively.

For `CN1N=C(C(C)(C)C)C(NO)(c2ccc(S(=O)(=O)N(C)C)cc2)C1=O` (stereo not drawn) [Compound 122, 4-[3-tert-Butyl-4-(hydroxyamino)-1-methyl-5-oxo-4,5-dihydro-1H-pyrazol-4-yl]-N,N-dimethylbenzene-1-sulfonamide], the half-life at 5 μM in series [1] turned out to be 35 min; in series [2], 34 min; in series [3], 31 min.

`CO/N=C(\C)C1(NO)C(=O)N(C)N=C1c1ccc(C(=O)N(C)C)cc1` (stereo not drawn) [Compound 123, 4-[4-(Hydroxyamino)-4-[1-(methoxyimino)ethyl]-1-methyl-5-oxo-4,5-dihydro-1H-pyrazol-3-yl]-N,N-dimethylbenzamide]: the values for the half-life at 5 μM in series [1], in series [2] and in series [3] were 6 min, 11 min and 6 min, respectively.

Take `CN(C)C(=O)c1ccc(C2(NO)C(=O)N(C)N=C2C(C)(C)C)cc1` (stereo not drawn) [Compound 124, 4-[3-tert-Butyl-4-(hydroxyamino)-1-methyl-5-oxo-4,5-dihydro-1H-pyrazol-4-yl]-N,N-dimethylbenzamide]: the values for the half-life at 5 μM in series [1], in series [2] and in series [3] were 45 min, 44 min and 31 min, respectively.

On to `CCOC1=NN(C)C(=O)C1(NO)/C(C)=N/OCc1ccccc1` (stereo not drawn) [Compound 125, 4-[1-[(Benzyloxy)imino]ethyl]-3-ethoxy-4-(hydroxyamino)-1-methyl-4,5-dihydro-1H-pyrazol-5-one], for which the results for the half-life at 5 μM in series [1], in series [2] and in series [3] were 13 min, 15 min and 10 min, respectively.

`CCOC1=NN(C)C(=O)C1(NO)/C(C)=N/OC` (stereo not drawn) [Compound 126, 3-Ethoxy-4-(hydroxyamino)-4-[1-(methoxyimino)ethyl]-1-methyl-4,5-dihydro-1H-pyrazol-5-one]: the half-life at 5 μM in series [1] was found to be 30 min; in series [2] it was 18 min; in series [3], 18 min.

As for `CCOC1=NN(c2ccccc2)C(=O)C1(C)NO` (stereo not drawn) [Compound 127, 3-Ethoxy-4-(hydroxyamino)-4-methyl-1-phenyl-4,5-dihydro-1H-pyrazol-5-one], the half-life at 5 μM in series [1], in series [2] and in series [3] was greater than 480 min in each case.

Regarding `CO/N=C(\C)C1(NO)C(=O)N(c2ccccc2)N=C1[S+]([O-])c1ccccc1` (stereo not drawn) [Compound 130, 3-(Benzenesulfinyl)-4-(hydroxyamino)4[1-(methoxyimino)ethyl]-1-phenyl-4,5-dihydro1H-pyrazol-5-one], the half-life at 5 μM in series [1], in series [2] and in series [3] was less than 1 min throughout.

On to `CO/N=C(\C)C1(NO)C(=O)NN=C1C(C)(C)C` (stereo not drawn) [Compound 131, 3-tert-Butyl-4-(hydroxyamino)-4-[1-(methoxyimino)ethyl]-4,5-dihydro-1H-pyrazol-5-one], for which the half-life at 5 μM was 7 min in series [1], 24 min in series [2] and 15 min in series [3].

As for `CC1=NN(C)C(=O)C1(NO)c1noc(-c2ccccc2)n1` (stereo not drawn) [Compound 132, 4-(Hydroxyamino)-1,3-dimethyl-4-(5-phenyl-1,2,4-oxadiazol-3-yl)-4,5-dihydro-1H-pyrazol-5-one], the half-life at 5 μM in series [1], in series [2] and in series [3] was less than 1 min in each case.
